In PMC12033163, “Tumor-specific biochemical nanoconversion of self-assembled peptide-conjugated paclitaxel-docetaxel-based nanoparticles” (Nano Convergence, 2025):
Peptide text beside a SMILES is read from it.

What was measured:
[1] = system: Hep G2 cells; test: In vitro cytotoxicity assay (EZ-Cytox); format: cell-based; settings: Hep G2, 48 h; for cell viability at 500 µM in 3% DMSO solution / cell viability at 500 µM: relative to untreated group; for cell viability at 500 µM in 3% DMSO solution: n = 6; for cell viability at 500 µM: n = 5-6, mean ± S.D.
Procedure: The cytotoxicity of (Ac)FRRF, de-Boc-DTX, (Ac)FRRF-DTX NPs, PTXm and PTX were evaluated using the EZ-Cytox assay on Hep G2 cell. Hep G2 was cultured in a 96-well plate at concentrations of 5.0 × 10^3 cells/well and 1.0 × 10^4 cells/well, respectively, under conditions of 37℃ and 5% CO2 for 1 h. Subsequently, cells were cultured for 48 h with concentrations ranging from 0.1 to 500 µM of each drug. Cell viability (n = 5 − 6) was measured at 450 and 600 nm absorbance using the EZ-Cytox cell viability assay kit (Daeil Lab Service, Republic of Korea) and a microplate reader (SPECTROstar Nano spectrophotometer, BMG Labtech, Germany). Cell viability was calculated by comparing the absorbance values of the measured samples with those of the control group. Additionally, to more accurately confirm the cytotoxicity of DTX and PTX with low solubility in aqueous media for Hep G2 cell, both of drug were dissolved in a 3% DMSO solution and cultured for 48 h at concentrations ranging from 0.1 to 500 µM. Cell viability was determined using the same method.

[2] = Solubility assessment; settings: for appearance of solution in 3% DMSO: 0.3 mg/mL in water (DW) with 3% DMSO; for appearance of solution in 3% DMSO / appearance of solution in 10% DMSO: visual images; for appearance of solution in 10% DMSO: 0.3 mg/mL in water with 10% DMSO
Procedure: The images aimed to observe how well these compounds dissolved in the solution. Additionally, an experiment was carried out to precisely determine the aqueous solubility values of (Ac)FRRF-DTX nanoparticles. […] […] Moreover, complementary experiments were performed to obtain accurate quantitative solubility values for (Ac)FRRF-DTX NPs.

[3] = system: microtubules in Hep G2 cells; test: In vitro microtubule staining (BioTracker 488 Green Microtubule Cytoskeleton Dye); format: cell-based; settings: Hep G2, 100 µM, 24 h, versus well-organized control
Procedure: To assess the cell death induced by PTX, PTXm, and (Ac)FRRF-DTX NPs in Hep G2 cells, an evaluation was conducted using the nucleic green reagent, and the results were visualized through imaging. Hep G2 cells cultured in high-glucose DMEM medium, maintain in a sample chamber with appropriate humidity, and kept at 37℃ with 5% CO2. The cells were cultured in 35 mm fluorescent cell culture dishes (SPL Life Science, Republic of Korea) at a concentration of 4 × 10^4 for 3 h. Subsequently, DTX, PTX, and (Ac)FRRF-DTX NPs were all treated at a concentration of 100 µM (in DMSO 2%) for 24 h. After sample treatment, cells were washed five times with DPBS solution, and in a light-protected environment, the medium was replaced with a mixture of microtubule reagent (Bio Tracker™ 488 Green Microtubule Cytoskeleton Dye, Sigma-Aldrich, MO, USA) in fresh medium at RT for 30 min. Following this, the medium was replaced with new DMEM containing 10% FBS, and images were captured using ECLIPSE Ti2 Series (Nikon, Japan) with a FITC filter and quantified using ImageJ (U.S. National Institutes of Health).

[4] = target: T1, Cathepsin B from bovine spleen (Bos taurus, UniProt P07688); test: Cathepsin B cleavage assay (RP-HPLC, LC-MS); format: in vitro ADME; settings: 50 µM, 25 mM MES buffer, 37℃, RP-HPLC 245 nm
T1 construct: Cathepsin B from bovine spleen; purchased Sigma-Aldrich; host or cells: bovine spleen (tissue-derived enzyme)
From the text: Antibiotic antimycotic solution (100X), Bio TrackerTM 488 Green Microtubule Cytoskeleton Dye, Cathepsin B from bovine spleen, Dimethyl sulfoxide (DMSO), Dulbecco’s modified Eagle’s medium (DMEM), 1-ethyl-3-(3-dimethylaminopropyl) carbodiimide (EDCI), dichloromethane (DCM), ether, phosphate-buffered saline (PBS), rhodamine B isothiocyanate (RITC), 2-(4-amidi-nophenyl)-6-indolecarbamidine dihydrochloride (DAPI), Tetramethylsilane (TMS), Dimethyl sulfoxide-d6 (DMSO-d6) were purchased from Sigma-Aldrich (St. Louis, MO, USA). Paraformaldehyde solution 4% in PBS (PFA), PierceTM BCA Protein Assay Kit were obtained from Thermo Fisher Scientific (Waltham, MA, USA). EZ-Cytox kit was purchased from DoGenBio (Seoul, Republic of Korea). Fetal bovine serum (FBS), 0.5% Trypsin-EDTA (10X) were obtained from Gibico (Waltham, MA, USA). Neutral buffered formalin (10%) was purchased from HuBenTech (Damyang, Republic of Korea).
The cathepsin B-specific cleavage of (Ac)FRRF-DTX was analyzed using reverse-phase high-performance liquid chromatography (RP-HPLC), and the molecular weight of PTXm was determined by liquid chromatography-mass spectrometry (LC-MS). […] The cleavage profile of (Ac)FRRF-DTX NPs was analyzed at 245 nm using reversed-phase high-performance liquid chromatography (RP-HPLC) under solvent gradient conditions (from 90:10 H2O/acetonitrile to 10:90 H2O/acetonitrile over 40 min). […]

[5] = In vivo blood toxicity assessment (hematology); settings: normal mice, i.v.; PTX 1.5 mg/kg, NPs 3 mg/kg; blood after 7 days, n = 5
Procedure: Hematological analysis of red blood cell (RBC) and white blood cell (WBC) parameters in mice treated with (Ac)FRRF-DTX was performed through clinical pathological examinations. Normal saline (control group), de-Boc-DTX (1.5 mg/kg), PTX (1.5 mg/kg), and (Ac)FRRF-DTX NPs (3 mg/kg) were dissolved in 200 µL of normal saline and administered daily via tail vein. After 7 days, blood was drawn from the mice’s heart and collected in tubes containing EDTA to prevent coagulation. Subsequently, whole blood samples were stored for analysis. Level of RBC-related parameters (RBC, HGB, HCT, MCV, MHC, MCHC) and WBC-related parameters (WBC, PLT, NEU, LYM, MONO, EOS) were measured using a hematology analyzer (Sysmex XN series, Sysmex, Japan) (n = 5).

[6] = system: Hep G2 tumors; test: In vivo antitumor test (Hep G2 xenograft); parameters: species or system BALB/c nude mice; settings: for average tumor weight after 17 days / tumor size after 17 days: i.v. at 3 day intervals, PTX, de-Boc-DTX 5 mg/kg, NPs 10 mg/kg; for average tumor weight after 17 days: control 595.28 ± 282.98; for tumor size after 17 days: control 2161.12 ± 946.71; for TUNEL staining fluorescence intensity of tumor tissue: tumors after 17 days, ImageJ, relative to control group, n = 3
Procedure: All animal experiments were conducted in accordance with the standard regulations of the Konkuk University Animal Experimentation Ethics Committee (Ref: no. KU220748-1). Hep G2 cells at a concentration of 1.0 × 10^7 cells/100 µL were subcutaneously inoculated into the dorsal region at 6-week-old male BALB/c nude mice (Orient Bio, Seongnam, Republic of Korea). After […], when the tumor volume reached approximately 50 − 100 mm^3 (calculated as the maximum diameter × minimum diameter^2 × 0.52), the mice were divided into four groups. Mice with tumors were intravenously administered saline, de-Boc-DTX (5 mg/kg), PTX (5 mg/kg), or (Ac)FRRF-DTX NPs (10 mg/kg; based on 5 mg/kg of de-Boc-DTX) at 3 days intervals for a total of 17 days. The body weight and tumor volume of the treated mice were measured every other day using a digital caliper (ASIMETO, Mooresville, NC, USA). After 17 days of treatment, tumors were fixed with diluted 10% neutral pH formalin (HuBen Tech, Republic of Korea). Tumor tissues were stained with TUNEL, Ki-67, and H&E. Sections of tumor tissues stained with Ki-67 and H&E were observed using the OS-33DPM multimedia video microscope (OSUN HITECH, Republic of Korea). Additionally, tumor tissues stained with TUNEL were sliced for histological observation using an ECLIPSE Ti2 inverted microscope (Nikon, Japan), and FITC fluorescence intensity was quantified using ImageJ (U.S. National Institutes of Health) (n = 3).

[7] = mouse, in vivo
[8] = Morphology / nanoparticle formation by TEM and SEM; format: physicochemical

SMILES | cell viability at 500 µM in 3% DMSO solution [1] | cell viability at 500 µM ([1]; without DMSO) | appearance of solution in 3% DMSO [2] | appearance of solution in 10% DMSO [2] | appearance of microtubule structures [3] | average tumor weight after 17 days ([6]; n = 5-7) | tumor size after 17 days ([6]; n = 5-7) | TUNEL staining fluorescence intensity of tumor tissue [6] | histological toxicity in major organs (heart, liver, spleen, lungs, kidney) [7] | morphology / nanoparticle formation [8] | other results
CC(=O)O[C@@]12CO[C@@H]1C[C@H](O)[C@@]1(C)C(=O)[C@H](O)C3=C(C)[C@@H](OC(=O)[C@H](O)[C@@H](NC(=O)OC(C)(C)C)c4ccccc4)C[C@@](O)([C@@H](OC(=O)c4ccccc4)[C@H]21)C3(C)C [DTX, Docetaxel] | 24.9 ± 4.6% | 57.9 ± 8.9% | opaque or precipitated | clear |  |  |  |  |  |  | 
CC(=O)O[C@@]12CO[C@@H]1C[C@H](O)[C@@]1(C)C(=O)[C@H](O)C3=C(C)[C@@H](OC(=O)[C@H](O)[C@@H](NC(=O)[C@@H](N)Cc4ccccc4)c4ccccc4)C[C@@](O)([C@@H](OC(=O)c4ccccc4)[C@H]21)C3(C)C [PTXm] |  | 40.9 ± 10.9% |  |  | indistinct |  |  |  |  |  | IC50 ([1]; tested 0.1-500 µM, without DMSO): 214 µM
CC(=O)N[C@@H](Cc1ccccc1)C(=O)N[C@@H](CCCNC(=N)N)C(=O)N[C@@H](CCCNC(=N)N)C(=O)N[C@@H](Cc1ccccc1)C(=O)N[C@@H](c1ccccc1)[C@@H](O)C(=O)O[C@H]1C[C@@]2(O)[C@@H](OC(=O)c3ccccc3)[C@@H]3[C@]4(OC(C)=O)CO[C@@H]4C[C@H](O)[C@@]3(C)C(=O)[C@H](O)C(=C1C)C2(C)C [(Ac)FRRF-DTX, Acetylated Phenylalanine-Arginine-Arginine-Phenylalanine Docetaxel] |  |  |  |  |  |  |  |  |  |  | solubility in water ([2]; water without DMSO): 1.3 mg/20 µL; change of (Ac)FRRF-DTX in the absence of cathepsin B ([4]; 0-72 h, no cathepsin B): remained unchanged; nanoconversion of (Ac)FRRF-DTX to PTXm at 48 h ([4]; cathepsin B 50 µg/mL, 48 h): complete nanoconversion
CC(=O)O[C@H]1C(=O)[C@@]2(C)[C@H]([C@H](OC(=O)c3ccccc3)[C@]3(O)C[C@H](OC(=O)[C@H](O)[C@@H](NC(=O)c4ccccc4)c4ccccc4)C(C)=C1C3(C)C)[C@]1(OC(C)=O)CO[C@@H]1C[C@@H]2O [PTX, paclitaxel] | 27.4 ± 4.5% | 55.5 ± 4.9% | opaque or precipitated | clear | indistinct | 293.97 ± 164.22 mg | 1029.79 ± 752.19 mm^3 | 183.71 ± 2.32% | no significant toxicity |  | white blood cell parameters (NEU, LYM, EOS concentrations) [5]: alterations in NEU, LYM and EOS concentrations; body weight change ([6]; 17 days treatment, n = 5-7): no significant changes in body weight
CC(=O)O[C@@]12CO[C@@H]1C[C@H](O)[C@@]1(C)C(=O)[C@H](O)C3=C(C)[C@@H](OC(=O)[C@H](O)[C@@H](N)c4ccccc4)C[C@@](O)([C@@H](OC(=O)c4ccccc4)[C@H]21)C3(C)C [de-Boc-DTX] |  | 75.3 ± 5.4% |  |  |  | 265.94 ± 298.69 mg | 1262.19 ± 1209.27 mm^3 | 196.50 ± 4.25% | no significant toxicity | absence of nanoparticle formation | 
CC(=O)N[C@@H](Cc1ccccc1)C(=O)N[C@@H](CCCNC(=N)N)C(=O)N[C@@H](CCCNC(=N)N)C(=O)N[C@@H](Cc1ccccc1)C(=O)O [(Ac)FRRF, acetylated Phe-Arg-Arg-Phe peptide] (Ac-FRRF-OH) |  | 84.1 ± 6.6% |  |  |  |  |  |  |  | absence of nanoparticle formation | 
